{"source": "paper PMC7875478", "about": "(Journal of veterinary pharmacology and therapeutics, 2020)", "key": {"equine CYP3A97 [1]": {"system": "equine CYP3A97"}, "equine CYP1A1": {"system": "equine CYP1A1", "settings": "5-OH flunixin formation"}, "[2]": {"experiment": "Flunixin meglumine metabolism to 5-OH flunixin in equine liver microsomes", "assay_type": "in vitro ADME", "settings": "for Vmax (or Vmax1) / Ki: 5-OH flunixin formation; for Ki: substrate inhibition model"}, "equine CYP3A93": {"system": "equine CYP3A93", "settings": "5-OH flunixin formation"}, "CYP2C92": {"system": "CYP2C92", "experiment": "Incubation of FM with recombinant equine CYP2C92", "assay_type": "in vitro ADME"}, "[3]": {"experiment": "Phenylbutazone metabolism in equine liver microsomes", "assay_type": "in vitro ADME", "settings": "metabolite formation from PBZ"}, "equine CYP3A97 [4]": {"system": "equine CYP3A97", "experiment": "Phenylbutazone metabolism to oxyphenbutazone by recombinant equine CYP3A97", "assay_type": "in vitro ADME", "settings": "oxyphenbutazone formation from PBZ"}, "[5]": {"system": "equine liver microsomal P450 forming gamma-hydroxy phenylbutazone", "experiment": "Cytochrome P450 inhibition assay with PBZ in equine liver microsomes", "assay_type": "in vitro ADME", "settings": "horse, equine liver microsomes, pH 7.4"}, "recombinant CYP3A97": {"system": "recombinant CYP3A97", "experiment": "Cytochrome P450 inhibition assay with PBZ and recombinant CYP3A97", "settings": "recombinant CYP3A97, inhibitor 10 μM, PBZ 400 μM"}, "[6]": {"experiment": "Cytochrome P450 inhibition assay with PBZ in equine liver microsomes", "assay_type": "in vitro ADME", "settings": "inhibitor 10 μM, PBZ 400 μM"}, "[7]": {"settings": "read-out: Km (or Km1), 5-OH flunixin formation"}}, "note": "Where two headings read alike, the source gives them in different places."}
{"smiles": "Cc1c(Nc2ncc(O)cc2C(=O)O)cccc1C(F)(F)F", "note": "[5-OH flunixin, 5-hydroxy-flunixin]", "values": [{"measurement": "Best fit model", "setting": "equine CYP3A95; 5-OH flunixin formation", "value": "Michaelis-Menten"}, {"measurement": "Vmax (or Vmax1)", "setting": "equine CYP3A95; 5-OH flunixin formation", "value": 0.675, "unit": "pmol/min/pmol P450"}, {"measurement": "Km", "setting": "equine CYP3A95; [7]", "value": 928, "unit": "µM"}, {"measurement": "Best fit model", "setting": "equine CYP3A97 [1]; 5-OH flunixin formation", "value": "Michaelis-Menten"}, {"measurement": "Vmax (or Vmax1)", "setting": "equine CYP3A97 [1]; 5-OH flunixin formation", "value": 0.450, "unit": "pmol/min/pmol P450"}, {"measurement": "Km", "setting": "equine CYP3A97 [1]; [7]", "value": 4.07, "unit": "µM"}, {"measurement": "Best fit model", "setting": "equine CYP3A94; 5-OH flunixin formation", "value": "Michaelis-Menten"}, {"measurement": "Vmax (or Vmax1)", "setting": "equine CYP3A94; 5-OH flunixin formation", "value": 1.39, "unit": "pmol/min/pmol P450"}, {"measurement": "Km", "setting": "equine CYP3A94; [7]", "value": 828, "unit": "µM"}, {"measurement": "Best fit model", "setting": "equine CYP1A1; CYP1A1", "value": "Biphasic"}, {"measurement": "Vmax (or Vmax1)", "setting": "equine CYP1A1; CYP1A1, high-affinity phase", "value": 1.39, "unit": "pmol/min/pmol P450"}, {"measurement": "Vmax2", "setting": "equine CYP1A1; CYP1A1, low-affinity phase", "value": 0.665, "unit": "pmol/min/pmol P450"}, {"measurement": "Km2", "setting": "equine CYP1A1; CYP1A1, second phase", "value": 546.6, "unit": "µM"}, {"measurement": "Km", "setting": "equine CYP1A1; read-out: Km (or Km1), CYP1A1, high-affinity phase", "value": 495, "unit": "µM"}, {"measurement": "Best fit model", "setting": "[2]; 5-OH flunixin formation from FM", "value": "Substrate Inhibition"}, {"measurement": "Vmax (or Vmax1)", "setting": "[2]; horse 1", "value": 0.613, "unit": "pmol/min/pmol P450"}, {"measurement": "Vmax (or Vmax1)", "setting": "[2]; horse 2", "value": 0.803, "unit": "pmol/min/pmol P450"}, {"measurement": "Km", "setting": "[2]; read-out: Km (or Km1), 5-OH flunixin formation, horse 1", "value": 22.6, "unit": "µM"}, {"measurement": "Km", "setting": "[2]; read-out: Km (or Km1), 5-OH flunixin formation, horse 2", "value": 13.1, "unit": "µM"}, {"measurement": "Ki", "setting": "[2]; horse 1", "value": 710, "unit": "µM"}, {"measurement": "Ki", "setting": "[2]; horse 2", "value": 1190, "unit": "µM"}, {"measurement": "Best fit model", "setting": "equine CYP3A93; CYP3A93", "value": "Biphasic"}, {"measurement": "Vmax (or Vmax1)", "setting": "equine CYP3A93; CYP3A93, high-affinity phase", "value": 0.148, "unit": "pmol/min/pmol P450"}, {"measurement": "Vmax2", "setting": "equine CYP3A93; CYP3A93, low-affinity phase", "value": 2.32, "unit": "pmol/min/pmol P450"}, {"measurement": "Km2", "setting": "equine CYP3A93; CYP3A93, second phase", "value": 1539.8, "unit": "µM"}, {"measurement": "Km", "setting": "equine CYP3A93; read-out: Km (or Km1), CYP3A93, high-affinity phase", "value": 37.6, "unit": "µM"}]}
{"smiles": "Cc1c(Nc2ncccc2C(=O)O)cccc1C(F)(F)F", "note": "[FM, flunixin meglumine]", "values": [{"measurement": "Generation of metabolites by CYP2C92", "setting": "CYP2C92", "value": "did not generate any measurable metabolites"}]}
{"smiles": "CC(O)CCC1C(=O)N(c2ccccc2)N(c2ccccc2)C1=O", "note": "(stereo not shown) [Gamma-hydroxy phenylbutazone, gamma-hydroxy phenylbutazone]", "values": [{"measurement": "Best fit model", "setting": "[3]", "value": "Michaelis-Menten"}, {"measurement": "Km", "setting": "[3]; horse 1", "value": 29.2, "unit": "µM"}, {"measurement": "Vmax", "setting": "[3]; horse 1", "value": 1.56, "unit": "pmol/min/pmol P450"}, {"measurement": "Km", "setting": "[3]; horse 2", "value": 79.3, "unit": "µM"}, {"measurement": "Vmax", "setting": "[3]; horse 2", "value": 0.218, "unit": "pmol/min/pmol P450"}]}
{"smiles": "CCCCC1C(=O)N(c2ccccc2)N(c2ccc(O)cc2)C1=O", "note": "(stereo not shown) [Oxyphenbutazone, oxyphenbutazone]", "values": [{"measurement": "Best fit model", "setting": "[3]", "value": "Michaelis-Menten"}, {"measurement": "Vmax", "setting": "[3]; horse 1", "value": 1.72, "unit": "pmol/min/pmol P450"}, {"measurement": "Vmax", "setting": "[3]; horse 2", "value": 0.279, "unit": "pmol/min/pmol P450"}, {"measurement": "Best fit model", "setting": "equine CYP3A97 [4]", "value": "Michaelis-Menten"}, {"measurement": "Vmax", "setting": "equine CYP3A97 [4]", "value": 2.66, "unit": "pmol/min/pmol P450"}]}
{"smiles": "O=c1cc(-c2ccccc2)oc2c1ccc1ccccc12", "note": "[alpha-naphthoflavone]", "values": [{"measurement": "inhibition at 30 min, 10 μM", "setting": "[5]", "value": 79, "unit": "%"}, {"measurement": "Increased production of oxyphenbutazone compared to control", "setting": "recombinant CYP3A97", "value": 150, "unit": "%"}]}
{"smiles": "CC(C)(O)c1ccccc1CC[C@@H](SCC1(CC(=O)O)CC1)c1cccc(/C=C/c2ccc3ccc(Cl)cc3n2)c1", "note": "[montelukast]", "values": [{"measurement": "Oxyphenbutazone production decreased in microsomal incubations", "setting": "[6]", "value": 53, "unit": "%"}]}
